Source: PubChem BioAssay AID252 (DTP/NCI, 2004)
Inconclusive results and toxic doses are left out. Rule for the calls: active = survival T/C of 150% or more; inactive = T/C below 125% in these data.

System: BDF1 mice, intracerebral L1210 leukemia, survival T/C
Test: NCI In Vivo Anticancer Drug Screen. Data for tumor model L1210 Leukemia (intracerebral) in B6D2F1 (BDF1) mice
Details: endpoint: mean survival time, higher = longer survival
In short: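 Antitumour effect is judged in mice with transplanted tumour by comparing survival of treated (T) against vehicle-dosed (C) groups as T/C.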

Measured: T/C

C[C@]12C=CC(=O)C=C1CC[C@@H]1[C@@H]2C(=O)C[C@@]2(C)[C@H]1CC[C@]2(O)C(=O)CO
inactive: dose: 100.0 mg/kg/injection, schedule: Q01DX Z (sc), vehicle: steriod suspending solution 97 % of control | dose: 120.0 mg/kg/injection, schedule: Q01DX001 (sc), vehicle: steriod suspending solution 102 % of control | dose: 180.0 mg/kg/injection, schedule: Q01DX001 (sc), vehicle: steriod suspending solution 103 % of control | dose: 200.0 mg/kg/injection, schedule: Q01DX Z (sc), vehicle: steriod suspending solution 109 % of control | dose: 240.0 mg/kg/injection, schedule: Q01DX001 (sc), vehicle: steriod suspending solution 103 % of control | dose: 250.0 mg/kg/injection, schedule: Q01DX Z (sc), vehicle: steriod suspending solution 112 % of control | dose: 375.0 mg/kg/injection, schedule: Q01DX Z (sc), vehicle: steriod suspending solution 102 % of control | dose: 500.0 mg/kg/injection, schedule: Q01DX Z (sc), vehicle: steriod suspending solution 97 % of control | dose: 750.0 mg/kg/injection, schedule: Q01DX Z (sc), vehicle: steriod suspending solution 112 % of control

CNC(=N)c1ccc(NC(=N)c2ccc(NC(=O)Nc3cccc(NC(=O)Nc4ccc(C(=N)Nc5ccc(C(=N)NC)cc5)cc4)c3)cc2)cc1
inactive: dose: 50.0 mg/kg/injection, schedule: Q01DX001 (ip), vehicle: water 106 % of control | dose: 75.0 mg/kg/injection, schedule: Q01DX001 (ip), vehicle: water 109 % of control

CS(=O)(=O)Nc1ccc(Nc2c3ccccc3nc3cc(Cl)ccc23)cc1
inactive: dose: 10.0 mg/kg/injection, schedule: Q01DX009 (ip), vehicle: saline 99 % of control | dose: 10.0 mg/kg/injection, schedule: Q01DX009 (sc), vehicle: saline 99 % of control | dose: 20.0 mg/kg/injection, schedule: Q01DX009 (ip), vehicle: saline 98 % of control | dose: 20.0 mg/kg/injection, schedule: Q01DX009 (sc), vehicle: saline 102 % of control | dose: 40.0 mg/kg/injection, schedule: Q01DX009 (ip), vehicle: saline 106 % of control | dose: 40.0 mg/kg/injection, schedule: Q01DX009 (sc), vehicle: saline 114 % of control | dose: 80.0 mg/kg/injection, schedule: Q01DX009 (ip), vehicle: saline 91 % of control | dose: 80.0 mg/kg/injection, schedule: Q01DX009 (sc), vehicle: saline 114 % of control

OCCN1CCN(CCCN2c3ccccc3Sc3ccc(C(F)(F)F)cc32)CC1
inactive: dose: 12.5 mg/kg/injection, schedule: Q04DX003 (ip), vehicle: saline 102 % of control | dose: 25.0 mg/kg/injection, schedule: Q04DX003 (ip), vehicle: saline 106 % of control | dose: 50.0 mg/kg/injection, schedule: Q04DX003 (ip), vehicle: saline 112 % of control | dose: 100.0 mg/kg/injection, schedule: Q04DX003 (ip), vehicle: saline 94 % of control

Cc1[nH]c(=O)[nH]c(=O)c1N(CCF)CCCl
inactive: dose: 3.5 mg/kg/injection, schedule: Q01DX009 (ip), vehicle: Klucel (hydroxypropylcellulose) (HPC) 97 % of control | dose: 7.0 mg/kg/injection, schedule: Q01DX009 (ip), vehicle: Klucel (hydroxypropylcellulose) (HPC) 88 % of control | dose: 14.0 mg/kg/injection, schedule: Q01DX009 (ip), vehicle: Klucel (hydroxypropylcellulose) (HPC) 111 % of control | dose: 28.0 mg/kg/injection, schedule: Q01DX009 (ip), vehicle: Klucel (hydroxypropylcellulose) (HPC) 94 % of control

O=C(Nc1ccc(C2=NCCCN2)cc1)c1ccc(C(=O)Nc2ccc(C3=NCCCN3)cc2)cc1
inactive: dose: 1.25 mg/kg/injection, schedule: Q01DX Z (ip), vehicle: carboxymethylcellulose (CMC) 107 % of control | dose: 2.5 mg/kg/injection, schedule: Q01DX Z (ip), vehicle: carboxymethylcellulose (CMC) 107 % of control | dose: 5.0 mg/kg/injection, schedule: Q01DX Z (ip), vehicle: carboxymethylcellulose (CMC) 114 % of control | dose: 31.0 mg/kg/injection, schedule: Q01DX Z (ip), vehicle: carboxymethylcellulose (CMC) 104 % of control

CC12CC3(C)CC(C)(C1)CC(NC(=O)N(CCF)N=O)(C2)C3
inactive: dose: 82.0 mg/kg/injection, schedule: Q01DX001 (ip), vehicle: other 113 % of control

CN(Cc1cnc2nc(N)nc(N)c2n1)c1c(Cl)cc(C(=O)NC(CCC(=O)O)C(=O)O)cc1Cl (stereo not given)
inactive: dose: 285.0 mg/kg/injection, schedule: Q01DX001 (ip), vehicle: carboxymethylcellulose (CMC) 91 % of control | dose: 434.0 mg/kg/injection, schedule: Q01DX001 (ip), vehicle: carboxymethylcellulose (CMC) 90 % of control | dose: 647.0 mg/kg/injection, schedule: Q01DX001 (ip), vehicle: carboxymethylcellulose (CMC) 95 % of control
